Converted amounts (≈) assume the structure as drawn. Read-outs that look alike come from different tables or passages of the source.
Columns and labels:
Mycoplasma iners = assay: Minimal inhibitory concentration (PPLO agar); format: cell-based; conditions: Mycoplasmopsis iners, 192 h; Hokken PPLO agar, pH 7.8, 8 days, 37° C.
Description: (§1) H Hokken PPLO agar (pH 7.8, 8 days, 37° C.)
(§2) MIC Minimal inhibitory concentration
(§3) E Eiken PPLO agar (pH 7.8, 8 days, 37° C.)

Mycoplasma gallinarum = assay: Minimal inhibitory concentration (PPLO agar); format: cell-based; conditions: Mycoplasmopsis gallinarum, 192 h, Hokken PPLO agar, pH 7.8, 8 days, 37° C.
Description: as §1, §2, §3

mycoplasma = assay: Antimycoplasma activity, paper disc method; format: cell-based
Description: Inhibitory zone is assayed by paper disc method (Eiken PPLO agar, pH 7.8,
Nanaomycin A and derivatives thereof according to the present invention are assayed in a similar manner to that designated as the paper disc method by Itoh, et al [J. of Antibiotics, 24, 855-859 (1971)], for example, as follows: […]

[1] = system: Klebsiella pneumoniae PCI 602; assay: Minimal inhibitory concentration (agar); format: cell-based; conditions: PCI602, 48 h, nutrient agar, pH 7.0, 2 days, 37° C.
Aspergillus niger = assay: Minimal inhibitory concentration (agar); format: cell-based; conditions: Aspergillus niger, 96 h; potato agar, pH 6.4, 4 days, 27° C.; read-out: MIC
Description: Minimal inhibitory concentration was assayed by agar dilution method
(potato agar, pH 6.4, 27° C., 4 days).
P potato agar (pH 6.4, 4 days, 27° C.)

[2] = system: Aspergillus niger ATCC 6275; assay: Minimal inhibitory concentration (agar); format: cell-based; conditions: ATCC6275, 96 h, pH 6.4, 4 days, 27° C.
[3] = system: Xanthomonas oryzae N-5824; assay: microbe, parasite or virus in culture; format: cell-based; conditions: N5824, 48 h, pH 7
Trichophyton verrucosum = assay: Treatment of dermatomycosis of cattle; format: in vivo; design: key: +++: complete removal of scales and; ++: a little scales remained; +: removal of a part of scales; -: no removal of scale and no recovery
Description: When dermatomycosis of cattle caused by mass infection of Trichophyton verrucosum is treated with nanaomycin A, nanaomycin A is dissolved or suspended in a suitable carrier, for example, olive oil, and is coated on the affected part directly with or without removal of the scales. […] The results obtained by once-coating of nanaomycin A and by twice-coating (the second coating is carried out a week after the first coating) are shown in Tables 2 and 3, respectively. | I : direct coating on affected part | II : coating after removing the scales of affected | Con. : concentration of agent

[4] = system: fungi belonging to the genus Trichophyton; assay: Growth inhibition (text summary of Table 1); format: cell-based; conditions: 96 h, some fungi of the genus, read-out: concentration at which growth is inhibited
Description: | P potato agar (pH 6.4, 4 days, 27° C.)

Pseudomonas aeruginosa = assay: Minimal inhibitory concentration (agar); format: cell-based; conditions: 48 h, nutrient agar, pH 7.0, 2 days, 37° C.
Description: (§4) Medium N nutrient agar (pH 7.0, 2 days, 37° C.)
as §2
(§5) N nutrient agar (pH 7.0, 2 days, 37° C.)

Shigella flexneri = assay: Minimal inhibitory concentration (agar); format: cell-based; conditions: 48 h, nutrient agar, pH 7.0, 2 days, 37° C.
Description: as §4, §2, §5

Mycoplasma gallisepticum = assay: Growth inhibition (text summary of Table 1); format: cell-based; conditions: Mycoplasmoides gallisepticum, 192 h; read-out: concentration at which growth is inhibited
Description: as §1, §3

[5] = system: Trichophyton interdigitale; assay: Minimal inhibitory concentration (agar); format: cell-based; conditions: Trichophyton interdigitale, 96 h; potato agar, pH 6.4, 4 days, 27° C.; read-out: MIC
Trichophyton purpureum = assay: Minimal inhibitory concentration (agar); format: cell-based; conditions: 96 h, pH 6.4, potato agar, pH 6.4, 4 days, 27° C., read-out: MIC
Acute toxicity in mice = conditions: intra-penetrial injection
Trichophyton violaceum = assay: Minimal inhibitory concentration (agar); format: cell-based; conditions: Trichophyton violaceum, 96 h, pH 6.4, potato agar, pH 6.4, 4 days, 27° C.; read-out: MIC
Trichophyton pedis 804 = assay: Minimal inhibitory concentration (agar); format: cell-based; conditions: Trichophyton pedis, 804, 96 h, pH 6.4, potato agar, pH 6.4, 4 days, 27° C.; read-out: MIC
[6] = system: Escherichia coli NIHJ (JC-2); assay: Minimal inhibitory concentration (agar); format: cell-based; conditions: 48 h, pH 7, nutrient agar, pH 7.0, 2 days, 37° C.
Description: as §4, §2, §5

[7] = once-coating, I direct coating, 0.1 mg/ml
[8] = once-coating, I direct coating, 1 mg/ml
[9] = once-coating, I direct coating, 10 mg/ml
[10] = once-coating, II after removing scales, 0.1 mg/ml
[11] = once-coating, II after removing scales, 1 mg/ml
[12] = once-coating, II after removing scales, 10 mg/ml
[13] = twice-coating, I direct coating, 0.1 mg/ml
[14] = twice-coating, I direct coating, 1 mg/ml
[15] = twice-coating, I direct coating, 10 mg/ml
[16] = twice-coating, II after removing scales, 0.1 mg/ml
[17] = twice-coating, II after removing scales, 1 mg/ml
[18] = twice-coating, II after removing scales, 10 mg/ml

CC1OC(CC(=O)O)CC2=C1C(=O)c1c(O)cccc1C2=O (stereo not shown) [Nanaomycin A, nanaomycin A]
MIC (Mycoplasma iners): 3.12 µg/mL (≈ 10.3 µM)
MIC (Mycoplasma gallinarum): 1.56 µg/mL (≈ 5.16 µM)
zone of inhibition at 10 µg/mL (mycoplasma; Mycoplasma, 24 h, 10 μg/ml, Eiken PPLO agar, pH 7.8, 37° C., 1 day, read-out: Inhibitory Zone): 20.4 mm
zone of inhibition at 100 µg/mL (mycoplasma; Mycoplasma, 24 h, 100 μg/ml, Eiken PPLO agar, pH 7.8, 37° C., 1 day, read-out: Inhibitory Zone): 28.7 mm
antimycoplasma activity compared with deoxyfrenolicin and ethylkalafunginate (mycoplasma; paper disc, Table 5): superior to those of deoxyfrenolicin and ethylkalafunginate
MIC [1]: 31.3 µg/mL (≈ 104 µM)
MIC (Aspergillus niger): 25 µg/mL (≈ 82.7 µM)
MIC ([2]; pH 6.4, potato agar): 62.5 µg/mL (≈ 207 µM)
MIC ([2]; potato agar, read-out: MIC): 25 µg/mL (≈ 82.7 µM)
MIC [3]: 62.5 µg/mL (≈ 207 µM)
Result after 1 week (Trichophyton verrucosum; [7]): ++
Result after 2 weeks (Trichophyton verrucosum; [7]): ++
Result after 3 weeks (Trichophyton verrucosum; [7]): +++
Result after 4 weeks (Trichophyton verrucosum; [7]): +++
Result after 1 week (Trichophyton verrucosum; [8]): +++
Result after 2 weeks (Trichophyton verrucosum; [8]): +++
Result after 3 weeks (Trichophyton verrucosum; [8]): +++
Result after 4 weeks (Trichophyton verrucosum; [8]): +++
Result after 1 week (Trichophyton verrucosum; [9]): +++
Result after 2 weeks (Trichophyton verrucosum; [9]): +++
Result after 3 weeks (Trichophyton verrucosum; [9]): +++
Result after 4 weeks (Trichophyton verrucosum; [9]): +++
Result after 1 week (Trichophyton verrucosum; [10]): +++
Result after 2 weeks (Trichophyton verrucosum; [10]): +++
Result after 3 weeks (Trichophyton verrucosum; [10]): +++
Result after 4 weeks (Trichophyton verrucosum; [10]): +++
Result after 1 week (Trichophyton verrucosum; [11]): +++
Result after 2 weeks (Trichophyton verrucosum; [11]): +++
Result after 3 weeks (Trichophyton verrucosum; [11]): +++
Result after 4 weeks (Trichophyton verrucosum; [11]): +++
Result after 1 week (Trichophyton verrucosum; [12]): +++
Result after 2 weeks (Trichophyton verrucosum; [12]): +++
Result after 3 weeks (Trichophyton verrucosum; [12]): +++
Result after 4 weeks (Trichophyton verrucosum; [12]): +++
Result after 1 week (Trichophyton verrucosum; [13]): ++
Result after 2 weeks (Trichophyton verrucosum; [13]): +++
Result after 3 weeks (Trichophyton verrucosum; [13]): +++
Result after 4 weeks (Trichophyton verrucosum; [13]): +++
Result after 1 week (Trichophyton verrucosum; [14]): ++
Result after 2 weeks (Trichophyton verrucosum; [14]): ++
Result after 3 weeks (Trichophyton verrucosum; [14]): +++
Result after 4 weeks (Trichophyton verrucosum; [14]): +++
Result after 1 week (Trichophyton verrucosum; [15]): +++
Result after 2 weeks (Trichophyton verrucosum; [15]): +++
Result after 3 weeks (Trichophyton verrucosum; [15]): +++
Result after 4 weeks (Trichophyton verrucosum; [15]): +++
Result after 1 week (Trichophyton verrucosum; [16]): +++
Result after 2 weeks (Trichophyton verrucosum; [16]): +++
Result after 3 weeks (Trichophyton verrucosum; [16]): +++
Result after 4 weeks (Trichophyton verrucosum; [16]): +++
Result after 1 week (Trichophyton verrucosum; [17]): +++
Result after 2 weeks (Trichophyton verrucosum; [17]): +++
Result after 3 weeks (Trichophyton verrucosum; [17]): +++
Result after 4 weeks (Trichophyton verrucosum; [17]): +++
Result after 1 week (Trichophyton verrucosum; [18]): +++
Result after 2 weeks (Trichophyton verrucosum; [18]): +++
Result after 3 weeks (Trichophyton verrucosum; [18]): +++
Result after 4 weeks (Trichophyton verrucosum; [18]): +++
MIC [4]: ≤ 3.1 µg/mL
MIC (Pseudomonas aeruginosa): 500 µg/mL (≈ 1650 µM)
MIC (Shigella flexneri): 31.3 µg/mL (≈ 104 µM)
MIC (Mycoplasma gallisepticum): ≤ 0.1 µg/mL
MIC [5]: 1.6 µg/mL (≈ 5.29 µM)

CC(=O)Oc1cccc2c1C(=O)C1=C(CC(CC(=O)O)OC1C)C2=O (stereo not shown) [Acetylnanaomycin A, acetylnanaomycin A]
MIC (Trichophyton purpureum): 1.6 µg/mL (≈ 4.65 µM)
acute toxicity compared with nanaomycin A (Acute toxicity in mice): lower than that of nanaomycin A
MIC (Trichophyton violaceum): 0.8 µg/mL (≈ 2.32 µM)
MIC ([2]; potato agar, read-out: MIC): 25 µg/mL (≈ 72.6 µM)
MIC (Trichophyton pedis 804): 0.8 µg/mL (≈ 2.32 µM)
MIC [6]: > 100 µg/mL
MIC [5]: 1.6 µg/mL (≈ 4.65 µM)
